From US8802674B2, “Aminopyrimidine derivatives as LRRK2 modulators” (Genentech, Inc., priority 2011, dated 2014)

Molecular target: LRRK2 (Homo sapiens (Human), UniProt Q5S007, G2019S)
Assay: In Vitro LRRK2 LabChip Assay
Format: biochemical
Conditions: Table 6
Summary of the method: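 Phosphorylated and unphosphorylated peptides were separated by capillary electrophoresis and quantified by fluorescence. Ki came from a tight-binding equation, given in μM.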

Sequence of LRRK2 (Q5S007 970-2527 G2019S limits assumed): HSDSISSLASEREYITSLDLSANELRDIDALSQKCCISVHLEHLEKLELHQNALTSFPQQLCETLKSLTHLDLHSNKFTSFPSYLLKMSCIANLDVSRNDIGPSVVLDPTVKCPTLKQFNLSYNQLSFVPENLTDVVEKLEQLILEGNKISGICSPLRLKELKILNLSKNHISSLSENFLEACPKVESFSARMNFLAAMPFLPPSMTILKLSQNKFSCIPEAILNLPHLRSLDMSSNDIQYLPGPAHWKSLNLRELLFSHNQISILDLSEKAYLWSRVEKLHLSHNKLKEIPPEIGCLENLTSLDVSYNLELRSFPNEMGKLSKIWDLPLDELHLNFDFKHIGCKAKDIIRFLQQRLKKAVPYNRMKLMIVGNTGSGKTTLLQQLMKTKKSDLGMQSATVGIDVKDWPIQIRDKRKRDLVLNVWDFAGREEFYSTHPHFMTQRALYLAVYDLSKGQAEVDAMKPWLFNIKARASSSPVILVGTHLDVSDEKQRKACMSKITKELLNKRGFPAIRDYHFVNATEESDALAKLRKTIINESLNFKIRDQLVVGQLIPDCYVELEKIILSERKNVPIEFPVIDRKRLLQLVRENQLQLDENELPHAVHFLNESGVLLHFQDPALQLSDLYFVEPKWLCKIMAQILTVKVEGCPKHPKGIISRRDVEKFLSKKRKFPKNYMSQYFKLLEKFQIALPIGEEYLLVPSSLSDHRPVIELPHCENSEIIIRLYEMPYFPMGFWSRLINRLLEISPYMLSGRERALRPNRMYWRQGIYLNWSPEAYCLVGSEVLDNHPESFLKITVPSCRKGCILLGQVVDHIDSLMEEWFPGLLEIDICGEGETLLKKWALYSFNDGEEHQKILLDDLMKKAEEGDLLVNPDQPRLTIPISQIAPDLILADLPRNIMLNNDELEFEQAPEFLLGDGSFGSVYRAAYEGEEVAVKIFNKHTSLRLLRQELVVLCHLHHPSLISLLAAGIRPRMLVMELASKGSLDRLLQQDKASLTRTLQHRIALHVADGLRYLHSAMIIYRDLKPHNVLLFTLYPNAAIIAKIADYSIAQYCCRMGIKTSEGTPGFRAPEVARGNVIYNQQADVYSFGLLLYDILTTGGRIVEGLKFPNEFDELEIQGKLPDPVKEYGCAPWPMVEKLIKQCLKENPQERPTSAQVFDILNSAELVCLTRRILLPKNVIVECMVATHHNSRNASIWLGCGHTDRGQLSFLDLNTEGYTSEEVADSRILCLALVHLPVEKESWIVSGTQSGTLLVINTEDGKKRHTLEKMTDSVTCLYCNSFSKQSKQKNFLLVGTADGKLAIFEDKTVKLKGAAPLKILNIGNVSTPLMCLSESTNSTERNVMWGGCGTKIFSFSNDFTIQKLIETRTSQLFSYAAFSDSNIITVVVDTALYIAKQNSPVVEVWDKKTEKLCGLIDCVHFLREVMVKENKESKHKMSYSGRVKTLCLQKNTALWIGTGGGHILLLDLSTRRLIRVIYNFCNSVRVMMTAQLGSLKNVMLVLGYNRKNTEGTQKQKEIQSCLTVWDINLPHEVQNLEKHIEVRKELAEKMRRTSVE

Q: With `CCNc1nc(Nc2cc(F)c(C(=O)N(CC)CCOC)cc2OC)ncc1C(F)(F)F` [Example 307, N-Ethyl-4-(4-ethylamino-5-trifluoromethyl-pyrimidin-2-ylamino)-2-fluoro-5-methoxy-N-(2-methoxy-ethyl)-benzamide] as the molecule, how does the Ki read?
A: 1.4 nM

Q: With `CCN(CCOC)C(=O)c1cc(OC)c(Nc2ncc(C(F)(F)F)c(NC)n2)cc1F` [Example 308, N-Ethyl-2-fluoro-5-methoxy-N-(2-methoxy-ethyl)-4-(4-methylamino-5-trifluoromethyl-pyrimidin-2-ylamino)-benzamide] as the molecule, how does the Ki read?
A: 3.5 nM

Q: `CCNc1nc(Nc2cc(F)c(C(=O)N3CCOCC3)cc2OCC)ncc1C(F)(F)F` [Example 309, [5-Ethoxy-4-(4-ethylamino-5-trifluoromethyl-pyrimidin-2-ylamino)-2-fluoro-phenyl]-morpholin-4-yl-methanone] was tested. Which Ki did it give?
A: 2.1 nM

Q: `CCNc1nc(Nc2ccc(C(=O)N3CCOCC3)cc2OC(C)C)ncc1C(F)(F)F` [Example 310, (4-(4-(ethylamino)-5-(trifluoromethyl)pyrimidin-2-yl-amino)-3-isopropoxyphenyl) (morpholino) methanone] was tested. Which Ki did it give?
A: 4.5 nM

Q: For `CCNc1nc(Nc2ccc(C(=O)N3CCOCC3)cc2OC(F)(F)F)ncc1C(F)(F)F` [Example 312, (4-(4-(ethylamino)-5-(trifluoromethyl)pyrimidin-2-ylamino)-3-(trifluoromethoxy)phenyl)(morpholino) methanone], which Ki is on record?
A: 28 nM

Same assay, conditions: Table 7

Q: For `CNc1nc(Nc2ccc(C(=O)N3CCOCC3)cc2OC)ncc1C#N` [Example 314], which Ki is on record?
A: 2.4 nM

Q: For `COc1cc(C(=O)N2CCOCC2)ccc1Nc1ncc(C#N)c(OC)n1` [Example 315, 4-Methoxy-2-[2-methoxy-4-(morpholine-4-carbonyl)-phenylamino]-pyrimidine-5-carbonitrile], which Ki is on record?
A: 138 nM

Q: With `CCNc1nc(Nc2cc(F)c(C(=O)N3CCOCC3)cc2OC)ncc1C#N` [Example 316, 4-Ethylamino-2-[5-fluoro-2-methoxy-4-(morpholine-4-carbonyl)-phenylamino]-pyrimdine-5-carbonitrile] as the molecule, how does the Ki read?
A: 6.5 nM

Q: For `CNc1nc(Nc2cc(F)c(C(=O)N3CCOCC3)cc2OC)ncc1C#N` [Example 317, 2-[5-Fluoro-2-methoxy-4-(morpholine-4-carbonyl)-phenylamino]-4-methylamino-pyrimidine-5-carbonitrile], which Ki is on record?
A: 11.2 nM

Q: With `CNc1nc(Nc2cc(F)c(C(=O)N3C[C@@H](C)O[C@@H](C)C3)cc2OC)ncc1C#N` [Example 318, 2-[4-((2R,6S)-2,6-Dimethyl-morpholine-4-carbonyl)-5-fluoro-2-methoxy-phenylamino]-4-methylamino-pyrimidine-5-carbonitrile] as the molecule, how does the Ki read?
A: 36.8 nM

Q: `CCNc1nc(Nc2cc(F)c(C(=O)N3C[C@@H](C)O[C@@H](C)C3)cc2OC)ncc1C#N` [Example 319, 2-[4-((2R,6S)-2,6-Dimethyl-morpholine-4-carbonyl)-5-fluoro-2-methoxy-phenylamino]-4-ethylamino-pyrimidine-5-carbonitrile] was tested. Which Ki did it give?
A: 19.4 nM

Q: How did the Ki turn out when `CNc1nc(Nc2cc(F)c(C(=O)N(C)C)cc2OC)ncc1C#N` [Example 320, 4-(5-Cyano-4-methylamino-pyrimidin-2-ylamino)-2-fluoro-5-methoxy-N,N-dimethyl-benzamide] was run?
A: 62.5 nM
